Counter-ions that a name gives are not always drawn.
Columns and labels:
[1] = biological target: Human STING (hSTING, residues 155-341, wild-type sequence) (Homo sapiens, UniProt Q86WV6, H232R); test: Differential Scanning Fluorimetry (DSF), hSTING Tm shift; type: binding; conditions: 100 uM test compound, 3 uM target protein; for hSTING Tm shift: Sodium Salt
Excerpt: The dissociation curves were processed in Bio-Rad CFX Manager. • Peak type was set to “negative”.

[2] = biological target: human STING protein in THP1-Blue ISG cells (Homo sapiens, UniProt Q86WV6, G230A/H232R/R293Q/R71H); test: In vitro cytokine induction, THP1-Blue ISG IRF-inducible SEAP reporter assay; conditions: 24 hours incubation, OD at 620 nm
human STING protein in THP1-Blue ISG cells, sequence (Q86WV6 whole entry R71H/G230A/H232R/R293Q): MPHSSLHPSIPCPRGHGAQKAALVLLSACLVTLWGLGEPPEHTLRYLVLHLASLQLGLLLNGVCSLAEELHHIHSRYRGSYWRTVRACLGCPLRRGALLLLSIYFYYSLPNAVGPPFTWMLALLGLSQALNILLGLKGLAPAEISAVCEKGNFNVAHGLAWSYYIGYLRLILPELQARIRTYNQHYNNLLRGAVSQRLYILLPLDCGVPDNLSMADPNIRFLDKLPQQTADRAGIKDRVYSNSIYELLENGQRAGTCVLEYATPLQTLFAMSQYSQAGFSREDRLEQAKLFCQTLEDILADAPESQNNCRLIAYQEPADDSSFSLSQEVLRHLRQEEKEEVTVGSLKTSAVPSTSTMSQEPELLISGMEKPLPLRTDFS
Protocol: In Vitro Cytokine Induction
Using Invivogen's QUANTI-Blue™ colorimetric enzyme assay and a suitable optical density (OD) reader the activity of SEAP can be detected and quantified.
Measurements of SEAP activity were performed in THP1-Blue ISG cells stably expressing the human STING protein and the IRF-inducible SEAP reporter construct. Cells were cultivated for expansion in RPM11640 medium with 10% fetal calf serum, 50 μg/ml Penicillin-Streptomycin, 100 μg/ml Zeocin, and 100 μg/ml Normocin in a 37°, 95% humidity and 5% CO2 incubator. Assay-ready cells were stored as frozen stocks In preparation for the assay, the cells thawed in Zeocin-/Normocin-free medium and were distributed into the assay plates with a density of 15000 cells/15 μL per well. Compounds were prepared by an 8 or 16 point serial dilution in 50% aqueous DMSO and a final dilution step into medium to ensure a final DMSO concentration of 0.5% in the assay. 5 μL of diluted compounds plus 5 μL medium were added to the plates, followed by a 24 hours incubation at 37° C.
At the day of the assay, 75 μl per well of Quanti-Blue reagent was added to all wells of the plate and the plate was incubated another 30 minutes at 37° C. The OD at 620 nm was measured on the EnVision reader (PerkinElmer).

[3] = Mouse PK, plasma concentration after intravenous administration; type: in vivo; conditions: male C57BL/6NRj mouse, 10 μmol/Kg, mean of duplicate experiments
Protocol: The mouse PK of compounds of the invention was determined using the following method:
The compound was dissolved in a solution of physiological NaCl and administered intravenously to male C57BL/6NRj mouse at a dose of 10 μmol/Kg. A 20 μL blood sample was collected at 0.25, 0.5, 0.75, 1 and 2 h by taking ETDA as anticoagulant. Blood plasma was generated by centrifugation and stored at −20° C. The compound concentration was determined by LC-MS/MS.

Human STING (hSTING, residues 155-341, wild-type sequence), sequence (Q86WV6 155-341 H232R): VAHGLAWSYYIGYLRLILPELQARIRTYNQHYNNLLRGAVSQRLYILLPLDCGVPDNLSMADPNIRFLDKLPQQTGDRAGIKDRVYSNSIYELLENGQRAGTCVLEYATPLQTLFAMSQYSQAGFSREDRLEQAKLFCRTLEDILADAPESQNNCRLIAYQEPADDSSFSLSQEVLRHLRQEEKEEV

| hSTING Tm shift [1] [°C] | EC50 [2] [µM] | ΔTm at 100 µM [1] [°C] | compound concentration in plasma, T = 0.25 h [3] [nM] | compound concentration in plasma, T = 0.5 h [3] [nM] | compound concentration in plasma, T = 0.75 h [3] [nM] | compound concentration in plasma, T = 1 h [3] [nM] | compound concentration in plasma, T = 2 h [3] [nM] | Compound |
| --- | --- | --- | --- | --- | --- | --- | --- | --- |
|  | 8.5 | 9 |  |  |  |  |  | Nc1ncnc2c1ncn2[C@@H]1O[C@]23CO[C@@H]1[C@@H]2OP(=O)(S)OC[C@H]1O[C@@H](n2cnc4c(=O)[nH]ncc42)[C@H](OP(=O)(S)OC3)[C@@H]1O (single isomer, unassigned) [Example 3.2, Cyclic (imidazopyridazinon-β-D-ribofuranoside-(2′→5′)-phosphorothioate-LNA-adenine-(3′→5′)-phosphorothioate), Sodium Salt] |
| 17.0 | 0.17 |  | 2710 | 1280 | 595 | 260 | 111 | Nc1ncnc2c1ncn2[C@@H]1O[C@]23CO[C@@H]1[C@@H]2OP(=O)(S)OC[C@H]1O[C@@H](n2cnc4c(=O)[nH]ncc42)[C@H](OP(=O)(S)OC3)[C@@H]1O (single isomer, unassigned) [Example 3.1, Cyclic (imidazopyridazinon-β-D-ribofuranoside-(2′→5′)-phosphorothioate-LNA-adenine-(3′→5′)-phosphorothioate), Sodium Salt] |

Second part, the molecule before the results:

| Compound | hSTING Tm shift [1] [°C] | EC50 [2] [µM] | ΔTm at 100 µM [1] [°C] | compound concentration in plasma, T = 0.25 h [3] [nM] | compound concentration in plasma, T = 0.5 h [3] [nM] | compound concentration in plasma, T = 0.75 h [3] [nM] | compound concentration in plasma, T = 1 h [3] [nM] | compound concentration in plasma, T = 2 h [3] [nM] |
| --- | --- | --- | --- | --- | --- | --- | --- | --- |
| O=c1[nH]ncc2c1ncn2[C@@H]1O[C@@H]2COP(=O)(S)O[C@H]3[C@@H](O)[C@H](n4cnc5cncnc54)O[C@@H]3COP(=O)(S)O[C@@H]1[C@@H]2O (single isomer, unassigned) [Example 4.2, Cyclic (imidazopyridazinon-β-D-ribofuranoside-(2′→5′)-phosphorothioate-purine-β-D ribofuranoside-(3′→5′)-phosphorothioate), Sodium Salt] | 9.0 | 6.2 |  |  |  |  |  |  |
| O=c1[nH]ncc2c1ncn2[C@@H]1O[C@@H]2COP(=O)(S)O[C@H]3[C@@H](O)[C@H](n4cnc5cncnc54)O[C@@H]3COP(=O)(S)O[C@@H]1[C@@H]2O (single isomer, unassigned) [Example 4.1, Cyclic (imidazopyridazinon-β-D-ribofuranoside-(2′→5′)-phosphorothioate-purine-β-D ribofuranoside-(3′→5′)-phosphorothioate), Sodium Salt] |  | 0.19 | 13.9 |  |  |  |  |  |
| Nc1ncnc2c1ncn2[C@@H]1O[C@@H]2COP(=O)(S)O[C@H]3C(n4cnc5c(=O)[nH]ncc54)O[C@H](COP(=O)(S)O[C@H]2[C@H]1O)[C@H]3O (single isomer, unassigned) [Example 1.1, Cyclic (imidazopyridazinon-β-D-ribofuranoside-(2′→5′)-phosphorothioate-adenosine-(3′→5′)-phosphorothioate)] |  |  |  | 3080 | 1200 | 550 | 249 | 120 |
| Nc1ncnc2c1ncn2[C@@H]1O[C@@H]2COP(=O)(S)O[C@@H]3[C@H](O)[C@@H](COP(=O)(S)O[C@H]2[C@H]1F)O[C@H]3n1cnc2c(=O)[nH]ncc21 (single isomer, unassigned) [Example 2.1, Cyclic (imidazopyridazinon-β-D-ribofuranoside-(2′→5′)-phosphorothioate-2′-F-2′-deoxyadenosine-(3′→5′)-phosphorothioate] |  |  |  | 1970 | 699 | 401 | 241 | 78 |
